The record followed here is patent US7517654B2, “Peptide and a derivative thereof promoting cell adhesion and spreading” (Seoul National University Industry Foundation, priority 2004, dated 2009).

Format in all cases: cell-based, human
Assay [1] relates to HOK-16B cells. Briefly: Cell spreading activity assay on coated plates. Conditions: HOK-16B cells, 10 μg/well truncated or Ala-substituted peptide coating, 1 h. Here is the method:
To identify spreading cells, attached cells were fixed with 10% formalin in PBS for 15 min, rinsed twice with PBS, and stained with 0.005% crystal violet for 1 h. The plates were then gently rinsed with DDW. To ensure a representative count, each plate was divided into quarters, two fields per quarter were photographed using an Olympus BX51 microscope at 100× magnification. Cells that had adopted a flattened, polygonal shape, with filopodia-and lamellipodia-like extensions were considered to be spreading cells. In contrast, cells that resisted being washed and remained tethered to the plate surface were considered to be non-spreading cells.
To examine the adhesion activity of peptide P4 in detail, the inventors examined whether the adherent cells were tethered to the substratum or spread over the substratum. The BSA and rLG3 were used as the negative control and positive control, respectively, the percentage of cells displaying a spreading morphology was quantified by dividing the number of spreading cells by the total number of bound cells.

A further assay relates to FAK. Briefly: FAK phosphorylation assay (immunoblot, p-FAK/t-FAK). To be noted: for FAK phosphorylation level at Tyr-397: peptides 50 μg/60-mm dish. On the procedure:
The FAK phosphorylation assays were performed according to a method of Shang et al. (J. Biol. Chem., 276:33045, 2001). In detail, the HOK-16B cells were trypsinized, washed, and kept in suspension in serum-free KGM with 0.1% BSA for 1 h at 37° C. The 60-mm culture dishes were coated with laminin (5 μg/ml) or rLG3 protein (25 μg/ml) at 4° C. overnight. Peptides (50 μg/60-mm culture dish) were also coated on dishes by drying overnight. For the adherent FAK assay, 1×10^6 cells were plated onto uncoated, laminin-coated, rLG3 protein-coated, or various peptide-coated dishes and allowed to attach for 15, 30, or 60 min at 37° C. in an atmosphere of 5% CO2. At the end of the incubation, cells were washed with ice-cold PBS and lysed in RIPA buffer (50 mM Tris [pH 7.4], 150 mM NaCl, 1% Nonidet P-40, 0.5% Na-deoxycholate, 1 mM EDTA, 0.1% SDS, 2 mM Na3VO4, 1 mM glycerol phosphate, 1 mM PMSF, and protease inhibitor cocktail). Lysates were clarified by centrifugation at 12,000×g for 10 min at 4° C. to isolate cytosolic extracts.
The cytosolic extracts were denatured using SDS sample buffer [50 mM Tris-HCl (pH 6.8), 2% SDS, 10% glycerol, 0.1% bromophenol blue, 100 mM β-mercaptoethanol] and separated on an 8% SDS-polyacrylamide gel. Electrophoretic transfer of SDS-PAGE gel separated with protein to a nitrocellulose membrane was followed by immnoblotting with polyclonal anti-FAK antibodies to determine the total FAK level or immnoblotting with polyclonal anti-FAK [pY^397], [pY^407], [pY^576], [pY^577] or [pY^861] antibodies to determine the extent of tyrosine phosphorylation. The relative fold induction of FAK phosphorylation, defined as an increase in FAK phosphorylation of a sample relative to its corresponding background level (i.e., cells plated on plastic) was determined as follows: First, the densitomerty intensity of the phosphorylated FAK (p-FAK) and the total FAK (t-FAK) signals from the Western blots were measured with a LAS-1000plus (Fuji photo film, Japan). The ratio of p-FAK to t-FAK (p-FAK/t-FAK) for each sample was then calculated to correct for differences in protein loading. This ratio was normalized to the p-FAK/t-FAK ratio of the negative controls to obtain the relative fold induction of FAK phosphorylation.
HOK-16B cells isolated by trypsinization were suspended for 1 hr, and kept in suspension (Sus), or replated on 60-mm culture dishes coated with or without laminin (5 μg/ml). The cells were kept for 15, 30, or 60 min for being attached on plates, then cell lysates were analyzed by immunoblot analysis with anti-FAK p-Y397 antibody (Biosource, Camariollo, Calif.). […] This effect was observed within 15 min and peaked at 15 min after exposure to the laminin-coated plate (FIG. 8A).
Therefore, the extent of FAK phosphorylation at Tyr-397,-407,-576, -577, and -861 was investigated in HOK-16B cells cultured on plates coated with laminin (5 μg/ml), rLG3 (25 μg/ml), or peptides P1-P5 (50 μg/60-mm dish) for 15 min. The lysates were immnoblotted with polyclonal anti-FAK, p-Y397, p-Y407, p-Y576, p-Y577 or p-Y861 antibodies (Biosoucce, Camariollo, Calif.), and the total FAK level was detected using anti-FAK antibodies (Upstate Biotechnology, Lake Placid, N.Y. The ratio of p-FAK to t-FAK (p-FAK/t-FAK) for each sample was then calculated to correct for differences in protein loading. This ratio was normalized to the p-FAK/t-FAK ratio of the negative controls (cells on plates) to obtain the relative fold induction of FAK phosphorylation. As a result, the extent of FAK phosphorylation at Tyr-397 cultured on the laminin-coated or rLG3 protein-coated plates increased 16.2- and 8.2-fold compared with the untreated control (FIG. 8B).

Assay [2] relates to HOK-16B cells. Briefly: Cell adhesion assay on coated plates (crystal violet absorbance at 570 nm / cell counting). To be noted: HOK-16B cells, 10 μg/well truncated or Ala-substituted peptide coating, 1 h. On the procedure:
The cell adhesion assay was performed according to a method reported by Okazaki et al. (J. Biol. Chem., 277:37070, 2002). In detail, 24-well culture plates (Nunc, Roskilde, Denmark) were coated with various amounts of rLG proteins at 4° C. overnight. The peptides were also coated on plates by drying overnight. The substrate-coated on the plates were blocked by adding 1% heat-inactivated bovine serum albumin (BSA) in PBS for 1 h at 37° C. and washed twice with PBS. The cells in the Experimental Example 1, detached by 0.05% tyrpsin and 0.53 mM EDTA in PBS and resuspended in culture media, were added (1×10^5 cells/500 μl) to each plate and incubated for 1 h at 37° C. After incubation, unattached cells were removed by rinsing twice with PBS. The attached cells were fixed with 10% formalin in PBS for 15 min, rinsed twice with PBS, and stained with 0.5% crystal violet for 1 h. The plates were gently rinsed with DDW three times and lysed with 2% SDS for 5 min. Absorbance was measured at 570 nm in a Bio-Rad Model 550 microplate reader (BioRad).
The cell adhesion and spreading activities on peptide-coated plates were examined using HOK-16B cells by the same method as Experimental Example 2. 24-well plates were coated with 10, 20, 30, 40 and 50 μg/well peptides P1 to P5, respectively. HOK-16B cells were added to peptide-coated plates and cultured for 1 h in serum-free medium for 1 hr. After the unbound cells were washed off, adherent cells were fixed and stained with crystal violet, and then the stained cells were analyzed. Absorbance was measured at 570 nm in a microplate reader. BSA and the rLG3 were used as negative control and positive control, respectively.
It was observed that peptide P4 promotes strong cell adhesion and spreading activities and binds to integrin α3β1 in the Example 4. Therefore, to determine the biologically active core sequences in peptide P4, five synthetic peptides (P4 D-I to P4 D-V), which are C-terminal truncated peptides from the peptide P4, and six synthetic peptides (P4 D-N1 to P4 D-N6), which are N-terminal truncated peptides from the peptide P4 were prepared (FIG. 6A) and examined for HOK-16B cell adhesion and spreading activities on peptide-coated plates by the present inventors. 24-well plates were coated with 10 μg/well C-terminal truncated peptides or N-terminal truncated peptides, and HOK-16B cells were added to the plates, and then cultured in serum-free medium for 1 hr. After the unbound cells were washed off, the adherent cells were fixed to stain with crystal violet, and the stained cells were analyzed. Absorbance was measured at 570 nm in a microplate reader. Peptide P4 and BSA were used as the positive and negative controls, respectively.
24-well plates were coated with 10 μg/well peptides, and HOK-16B cells were added to the plates, and then cultured in serum-free medium for 1 hr. After the unbound cells were washed off, the adherent cells were fixed to stain with crystal violet, and the stained cells were analyzed. Peptide P4 and BSA were used as the positive and negative controls, respectively. The results were expressed as mean ±SD of the four independent experiments.

[3] abbreviates: HOK-16B cells on coated dishes, laminin 5 μg/ml.

“P4-S2: peptide P4 in which Ala substituted for Arg (PPFLMLLKGSTA)”: in the assay with HOK-16B cells [1], the “cell spreading activity compared to the peptide P4 control” value was “significantly inhibited”. Also, in the assay with FAK (setting [3]), the “FAK phosphorylation level at Tyr-397” value was “significantly decreased”. For the same substance, in the assay on HOK-16B cells [2], the “cell adhesion activity compared to the peptide P4 control” value is “significantly inhibited”.
laminin [reference compound]: in the assay on FAK (HOK-16B cells on coated dishes, 15 min), the “changes of the FAK phosphorylation levels at Tyr-407, -576 and -861” value is recorded as “not observed”. The “FAK phosphorylation level at Tyr-397” value with FAK (setting [3]) is recorded as “notably higher”. In addition, the “increase of FAK phosphorylation at Tyr-397 compared with the untreated control” value in the assay with FAK (HOK-16B cells, 15 min, laminin 5 μg/ml or rLG3 25 μg/ml coating, p-FAK/t-FAK normalized) is 16.2 fold. The “time of peak FAK phosphorylation at Tyr-397 after exposure to coated plate” value in the assay with FAK (laminin 5 μg/ml, 15, 30 or 60 min tested) turned out to be 15 min.
On to “P4-S3: peptide P4 in which Ala substituted for both Lys and Arg (PPFLMLLAGSTA)”, for which the “cell spreading activity compared to the peptide P4 control” value in the assay on HOK-16B cells [1] was “significantly inhibited”. For the same substance, the “FAK phosphorylation level at Tyr-397” value in the assay with FAK (setting [3]) was “significantly decreased”. The “cell adhesion activity compared to the peptide P4 control” value with HOK-16B cells [2] is reported as “significantly inhibited”.
